Data on nine compounds can be found in PubChem BioAssay (NCI).

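48-hour exposure; five concentrations; linearly interpolated endpoints. TGI is the concentration that stops growth completely.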 Where a SMILES comes first, the peptide text is derived from it. [ ]: non-standard residue; d: D form. The star is where a group is joined. Phe(4-NO2) = N[CH](Cc1ccc([N+](=O)[O-])cc1)C(=O)O; Cbz = O=C(OCc1ccccc1)* Bounds are passed on as bounds.

Common to all, as to assay: NCI-60 cell line screen, 48 h
Assay [1] deals with KM12 colon.
For assay [2], the system named is PC-3 prostate.
For assay [3], the system named is M14 melanoma.
Assay [4] concerns ACHN renal.
Assay [5] concerns HOP-62 NSCLC.
Assay [6] relates to SK-OV-3 ovarian.
The subject of assay [7] is NCI-H23 lung.
For assay [8], the system named is NCI/ADR-RES ovarian.
Assay [9] has as its system IGROV1 ovarian.
The subject of assay [10] is U251 CNS.
Assay [11] concerns RPMI-8226 leukemia.
Assay [12] deals with K-562 leukemia.
In assay [13] the test system is MCF7 breast.
Assay [14] has as its system OVCAR-5 ovarian.
For assay [15], the system named is A498 renal.
Assay [16] relates to HOP-92 NSCLC.

Regarding `O=C1/C(=C/c2ccc([N+](=O)[O-])cc2)Oc2cc(O)ccc21`, the TGI is > 100 µM in assay [1]; 66.8 µM in assay [2]; > 100 µM in assay [3]; 56.1 µM in [4]; > 100 µM in assay [5]; 71.6 µM in assay [6]. The TGI is > 100 µM in [7]; 88.3 µM in [8]; > 100 µM in [9]; 93 µM in [10]; 65.8 µM in assay [11]; 46.9 µM in assay [12]. In assay [13], the TGI was > 100 µM.

Regarding `O=C1NCC2(CCN(CC3COc4ccccc4O3)CC2)N1c1ccccc1` (stereo not given), the TGI in assay [1], in assay [14], in [2], in [3], in assay [4] and in assay [5] was > 100 µM in each case. Also, the TGI in [6], in [7], in [8], in assay [9], in assay [10] and in assay [11] was > 100 µM each time. For the same compound, the TGI in assay [12], in [13] and in assay [15] was > 100 µM each time.

For the compound `O=C(O)CNc1ncc2c(n1)-c1ccccc1OC2`, the TGI in [1], in [14], in assay [2], in assay [3], in [4] and in assay [5] was > 100 µM each time. Also, the TGI in assay [6], in assay [7], in [8], in assay [9], in assay [16] and in assay [10] was > 100 µM in each case. The TGI in assay [11], in assay [12] and in assay [13] was > 100 µM each time.

With `c1ccc2c(c1)n1c(N3CCCC3)[n+]3ccccc3c1c1c3cccc[n+]3c(N3CCCC3)n21`, the TGI in assay [1], in assay [14], in [2], in [3], in assay [4] and in assay [7] was > 100 µM each time. Moreover, the TGI in assay [8], in assay [9], in [16], in [10], in assay [11] and in assay [12] was > 100 µM in each case. Further, the TGI in assay [13] and in assay [15] was > 100 µM each time.

`COc1ccc(-n2c(C)nc3ccc(NC4OCC(OC(C)=O)C(OC(C)=O)C4OC(C)=O)cc3c2=O)cc1` (stereo not given): the TGI in assay [1], in [14], in [2], in assay [4], in assay [5] and in [7] was > 100 µM throughout. Besides, the TGI in assay [8], in assay [9], in assay [10], in [11], in [12] and in assay [13] was > 100 µM throughout. For the same compound, the TGI in [15] is > 100 µM.

On to `CCOC(=O)CCC(NC(=O)OCc1ccccc1)C(=O)NC(CCC(=O)OCC)C(=O)NC(CCC(=O)OCC)C(=O)NC(CCC(=O)OCC)C(=O)NC(CCC(=O)OCC)C(=O)NC(Cc1ccc([N+](=O)[O-])cc1)C(=O)NC(CCC(=O)OCC)C(=O)NC(CCC(=O)OCC)C(=O)NC(CCC(=O)OCC)C(=O)NC(CCC(=O)OCC)C(=O)NC(CCC(=O)OCC)C(=O)OCC` (stereo not given) (Cbz-E(OEt)E(OEt)E(OEt)E(OEt)E(OEt)[Phe(4-NO2)]E(OEt)E(OEt)E(OEt)E(OEt)E(OEt)-OEt; configuration not given here), for which the TGI in assay [1], in assay [14], in [2], in assay [3], in assay [4] and in assay [5] was > 50 µM in each case. For the same compound, the TGI in assay [6], in assay [7], in assay [8], in assay [9], in [10] and in assay [11] was > 50 µM each time. Further, the TGI in assay [12], in [13] and in assay [15] was > 50 µM throughout.

As to `CCOC(=O)/C(=C\n1c(=O)sc2ccccc21)C(=O)c1ccccc1`, the TGI in [1], in [14], in assay [2], in assay [3], in assay [4] and in assay [5] was > 100 µM throughout. Besides, the TGI in assay [6], in assay [7], in assay [8], in [9], in assay [10] and in [11] was > 100 µM throughout. Also, the TGI in assay [12], in assay [13] and in assay [15] was > 100 µM throughout.

For `COc1ccc(C(=O)c2[nH]c(Nc3cc(C)ccn3)c(C(=S)Nc3ccccc3)c2N)cc1`, the TGI in [1] was 39.2 µM; in [14] it was 74.1 µM; in assay [2] it was > 100 µM; in assay [3], 42.5 µM; in [4], 97.4 µM; in [5], 72.2 µM. For the same compound, the TGI in assay [6] came to 47 µM; in assay [7], 72.6 µM; in [8], 24.3 µM; in [9] it was 42 µM; in [10], 36.4 µM; in assay [11], 37.3 µM. For the same compound, the TGI in assay [12] was > 100 µM; in [13], 75.2 µM; in assay [15] it was 33.1 µM.

On to `C=CCNC(=S)NC=C(C(N)=O)C(N)=O`, for which the TGI in assay [1], in assay [14], in assay [2], in [3], in assay [4] and in assay [5] was > 100 µM each time. The TGI in assay [6], in assay [7], in assay [8], in assay [9], in [10] and in [11] was > 100 µM throughout. In addition, the TGI in assay [12] was > 100 µM; in assay [13], > 100 µM; in [15], 89.2 µM.
